One experiment deals with T1, aromatase (Rattus norvegicus, UniProt P22443).
T1 construct: ovarian microsomes are obtained from rats treated with pregnant mares serum gonadotropin; from tissue; host or cells: ovary microsomes from rats treated with pregnant mares serum gonadotropin
T1 sequence (P22443 1-508): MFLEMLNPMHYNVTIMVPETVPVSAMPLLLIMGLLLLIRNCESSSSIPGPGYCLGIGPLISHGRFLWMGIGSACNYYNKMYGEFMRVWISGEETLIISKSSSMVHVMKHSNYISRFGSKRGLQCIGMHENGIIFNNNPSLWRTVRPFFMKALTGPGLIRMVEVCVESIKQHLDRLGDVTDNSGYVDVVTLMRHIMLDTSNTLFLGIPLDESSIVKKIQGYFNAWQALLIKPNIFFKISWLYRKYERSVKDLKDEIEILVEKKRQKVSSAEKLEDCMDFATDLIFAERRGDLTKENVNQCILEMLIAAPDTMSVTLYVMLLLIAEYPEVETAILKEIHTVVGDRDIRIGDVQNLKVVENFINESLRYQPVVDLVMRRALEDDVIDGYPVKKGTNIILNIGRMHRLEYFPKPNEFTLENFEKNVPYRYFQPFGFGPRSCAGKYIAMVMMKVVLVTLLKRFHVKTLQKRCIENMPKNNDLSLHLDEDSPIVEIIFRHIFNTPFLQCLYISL
Nature of the experiment: Aromatase inhibition in the rat ovarian microsome assay. Conditions: rat ovarian microsomes; substrate (androstenedione) concentration 0.1 μM. It is filed as biochemical.

The subject of a further experiment is breast cancer. Conditions: known aromatase inhibitors; cited from earlier work.

Structures can show the parent of a compound that is named as a salt.

The EC50 is the midpoint of the concentration-response curve.

Protocol for aromatase: In this test system, ovarian microsomes are obtained from rats treated with pregnant mares serum gonadotropin. Test compounds are added to reaction vials containing 0.1 μM 4-androstene-3,17-dione, 100,000 dpm 1,2[^3 H]-androstenedione, the microsomes and a NADPH generating system. The concentrations of the inhibitors tested ranged between 0.005 and 10 μM.

`Clc1ccc(C(c2ccc(Cl)cc2)c2cc[nH]n2)cc1` [3-[Bis(4-chlorophenyl)methyl]-1H-pyrazole hydrochloride]: at aromatase, the EC50 was found to be 170 nM.
Same read-out and setting: under `Clc1ccc(C(c2ccccc2)c2cn[nH]c2)c(Cl)c1` (stereo not shown) [4-[(2,4-Dichlorophenyl)phenylmethyl]-1H-pyrazole] stands 310 nM.
As for `CCC1(c2ccc(N)cc2)CCC(=O)NC1=O` (stereo not shown) [aminoglutethimide], the “effect in treatment of breast cancer” value in the experiment with breast cancer is “beneficial effect in treatment of breast cancer”.
Regarding `C[C@]12C=CC(=O)C=C1CC[C@@H]1[C@@H]2CC[C@]2(C)OC(=O)CC[C@@H]12` [testolactone], the “effect in treatment of breast cancer” value in the experiment with breast cancer is listed as “beneficial effect in treatment of breast cancer”.
